Data taken from patent US10813938B2 (priority 2015, dated 2020).
In brackets after ≈: the same amount, converted by molar mass.

Tests used:
physchem = details: pH 6.8, aqueous buffer, thermodynamic from solid
Experimental: The injection volume was 15 μL. […] The following gradient was used: […]

[1] = RH stability study (~97% RH, XRPD before/after); details: ~97% relative humidity, 1 day, ambient temperature; FIG. 16

For `O=C(O[C@@H]1Cc2c(O)cc(O)cc2O[C@@H]1c1cc(O)c(O)c(O)c1)c1cc(O)c(O)c(O)c1` [EGCG, Epigallocatechin gallate], the solubility at 24 h (physchem) was 24 mg/mL (≈ 52.4 mM).

For `Cn1c(=O)c2c(ncn2C)n(C)c1=O` [Caffeine], the “Solid form after exposure to ~97% RH (XRPD)” value [1] was “conversion to the hydrate”.
